Key:
[1] = test system: Trypanosoma cruzi; experiment: Antiprotozoal activity against Trypanosoma cruzi Tulahuen C4 at pH 7.4 by microplate assay; assay type: functional, organism-based
[2] = test system: Trypanosoma brucei rhodesiense; experiment: Antiprotozoal activity against Trypanosoma brucei rhodesiense STIB900 at pH 7.4 by microplate assay; assay type: functional, organism-based
[3] = test system: L6; experiment: Cytotoxicity against rat L6 cells; assay type: cell-based
[4] = Selectivity index, ratio of IC50 for rat L6 cells to IC50 for Trypanosoma brucei rhodesiense STIB900; assay type: toxicity, cell-based; settings: read-out: Ratio IC50
[5] = test system: Leishmania donovani; experiment: Antiprotozoal activity against Leishmania donovani MHOM/ET/67/L82 at pH 7.4 by microplate assay; assay type: functional, organism-based
[6] = Selectivity index, ratio of IC50 for rat L6 cells to IC50 for Trypanosoma cruzi Tulahuen C4; assay type: toxicity, cell-based; settings: read-out: Ratio IC50
[7] = Selectivity index, ratio of IC50 for rat L6 cells to IC50 for Leishmania donovani MHOM/ET/67/L82; assay type: toxicity, cell-based; settings: read-out: Ratio IC50
[8] = test system: Plasmodium falciparum; experiment: Antimalarial activity against Plasmodium falciparum K1 at pH 7.4 by microplate assay; assay type: functional, organism-based
[9] = Selectivity index, ratio of IC50 for rat L6 cells to IC50 for Plasmodium falciparum K1; assay type: toxicity, cell-based; settings: read-out: Ratio IC50

| SMILES | IC50 [1] [µM] | IC50 [2] [µM] | IC50 [3] [µM] | selectivity ratio [4] | IC50 [5] [µM] | selectivity ratio [6] | selectivity ratio [7] | IC50 [8] [µM] | selectivity ratio [9] |
| --- | --- | --- | --- | --- | --- | --- | --- | --- | --- |
| O=C(Cn1ccnc1[N+](=O)[O-])NCc1ccccc1 [BENZNIDAZOLE] | 0.886 | – | – | – | – | – | – | – | – |
| CCN(CC)c1ccc2nc3c4ccccc4/c(=N\c4ccc([N+](=O)[O-])cc4C#N)cc-3oc2c1 | 144 | 147 | 61.8 | 0.42 | 90.6 | 0.43 | 0.68 | 0.205 | 302 |
| CCN(CC)c1ccc2nc3c4ccccc4/c(=N\c4ccc(OC)cc4)cc-3oc2c1 | 20.3 | 14.9 | 57.2 | 3.84 | 5.2 | 2.82 | 10.9 | 0.04 | 1420 |
| CCN(CC)c1ccc2nc3c4ccccc4/c(=N\c4ccccc4)cc-3oc2c1 | > 229 | 88.5 | 180 | 2.03 | 20.1 | < 0.79 | 8.94 | 0.208 | 863 |
| CCN(CC)c1ccc2nc3c4ccccc4/c(=N\c4cccc(Cl)c4)cc-3oc2c1 | 76.7 | 129 | 129 | 1 | 28.6 | 1.68 | 4.5 | 0.209 | 617 |
| CCN(CC)c1ccc2nc3c4ccccc4/c(=N\c4ccc([N+](=O)[O-])cc4)cc-3oc2c1 | 56.9 | 198 | 51.9 | 0.26 | > 205 | 0.91 | < 0.25 | 0.135 | 386 |
| CCN(CC)c1ccc2nc3c4ccccc4/c(=N\c4ccc([N+](=O)[O-])cc4Cl)cc-3oc2c1 | 10.9 | 184 | 14.6 | 0.08 | 70.5 | 1.34 | 0.21 | 1.93 | 8 |
| CCN(CC)c1ccc2nc3c4ccccc4/c(=N\c4ccc(C)cc4)cc-3oc2c1 | 20.9 | 36.2 | 134 | 3.71 | 10.7 | 6.42 | 12.5 | 0.253 | 531 |
| CCN(CC)c1ccc2nc3c4ccccc4/c(=N\c4cccc(OC)c4)cc-3oc2c1 | 143 | 11.3 | 39.6 | 3.52 | 2.9 | 0.28 | 13.9 | 0.045 | 883 |
| CCN(CC)c1ccc2nc3c4ccccc4/c(=N\c4ccccc4Cl)cc-3oc2c1 | 78.8 | 85.4 | 56.2 | 0.66 | 23.3 | 0.71 | 2.41 | 0.215 | 261 |
